Results from patent publication US6369050B1, “Antibacterial agents” (Fujisawa Pharmaceutical Co., Ltd., priority 1998, dated 2002).
Read-outs that look alike come from different tables or passages of the source. Marks after values point to notes of the source that are not given here.

Assays:
S. pneumoniae FP1906 = test: Mixed respiratory infection in mice, viable S. pneumoniae in the lung (Test Example 4); format: in vivo; details: oral, 2 days after infection
Protocol: (§1) ICR strain male mice (4 weeks old, 5 animals per group) given cyclophosphamide (200 mg/kg, ip) 4 days prior to infection were nasally infected with S. pneumoniae FP1906 (2.0×10^7 cfu/mouse) and K. pneumoniae 15004 (5.5×10^3 cfu/mouse). Each drug was orally administered three times (3, 18 and 26 hours after infection) and, at 2 days after infection, viable cells in the lung were counted.

[1] = system: penicillin G-resistant S. pneumoniae; test: Checkerboard method MIC, penicillin G-resistant S. pneumoniae (Test Example 1); format: cell-based; details: for MIC: Streptococcus pneumoniae, antibiotic used alone, read-out: MIC, single use; for MIC, combined use: CFIX and AMPC used combinedly
Protocol: (§2) Checkerboard method (cf. Hideyo Yamaguchi: “Konnichi no Koseibusshitsu (Antibiotics of today)”, page 411, published by Nanzando)
(§3) The MIC of each antibiotic used singly and the MIC of each combination of antibiotics were determined by the standard method established by the Japan Society of Chemotherapy, using Mueller-Hinton agar medium (MHA, product of Difco) for M. catarrhalis and K. pneumoniae, 5% equine blood agar (MHA+5% equine blood) for S. pneumoniae, and MHA+5% equine blood (chocolate agar) for H. influenzae. A 100-fold dilution of an overnight culture of each bacterial strain was stamp-inoculated and, after 18 hours of incubation at 37° C. (in the case of S. pneumoniae and H. influenzae, in an atmosphere containing 5% carbon dioxide), the MIC was measured (in μg/ml)
(§4) The MIC's of two individual antibiotics and the MIC's of the two respective antibiotics used combinedly were determined by the checkerboard method and the fractional inhibitory concentration index (hereinafter, “FIC index”) was determined according to the equation shown below. [formula]
(§5) ao: MIC of antibiotic A used alone; b: MIC of antibiotic B used alone; a, b: MIC's of antibiotics A and B, respectively, when they are used combinedly.

K. pneumoniae 15004 = test: Mixed respiratory infection in mice, viable K. pneumoniae in the lung (Test Example 4); format: in vivo; details: oral, 2 days after infection
Protocol: as §1

K. pneumoniae = test: Checkerboard method MIC, K. pneumoniae (Test Example 1); format: cell-based; details: for MIC: Klebsiella pneumoniae, antibiotic used alone, read-out: MIC, single use; for MIC, combined use: CFIX and AMPC used combinedly
Protocol: as §2, §3, §4, §5

| MIC ([1]; strain FP1884) | MIC ([1]; strain FP1885) | MIC ([1]; strain FP1891) | MIC ([1]; strain FP1906) | MIC, combined use ([1]; strain FP1884) | MIC, combined use ([1]; strain FP1885) | MIC, combined use ([1]; strain FP1891) | MIC, combined use ([1]; strain FP1906) | MIC (K. pneumoniae; strain 15004) | MIC (K. pneumoniae; strain 15021) | MIC, combined use (K. pneumoniae; strain 15004) | MIC, combined use (K. pneumoniae; strain 15021) | Compound | Viable cells in the lung (logarithm), S. pneumoniae (S. pneumoniae FP1906; 10 mg/kg three times) | Viable cells in the lung (logarithm), S. pneumoniae (S. pneumoniae FP1906; 50 mg/kg three times) | Viable cells in the lung (logarithm), K. pneumoniae (K. pneumoniae 15004; 10 mg/kg three times) | Viable cells in the lung (logarithm), K. pneumoniae (K. pneumoniae 15004; 50 mg/kg three times) |
| --- | --- | --- | --- | --- | --- | --- | --- | --- | --- | --- | --- | --- | --- | --- | --- | --- |
| 12.5 mg/L | 6.25 mg/L | 3.13 mg/L | 12.5 mg/L | 0.78 mg/L | 0.1 mg/L | 0.78 mg/L | 1.56 mg/L | 0.05 mg/L | 0.025 mg/L | ≦0.00313 μg/ml | 0.0125 mg/L | C=CC1=C(C(=O)O)N2C(=O)[C@@H](NC(=O)/C(=N\OCC(=O)O)c3csc(N)n3)[C@H]2SC1 [CFIX, Cefixime] | 8.46^*# logarithm | 8.26^*# logarithm | 4.14 logarithm | 2.34 logarithm |
| 0.2 mg/L | 0.78 mg/L | 0.39 mg/L | 0.76 mg/L | 0.05 mg/L | 0.39 mg/L | 0.025 mg/L | 0.2 mg/L | 100 mg/L | 25 mg/L | 50 mg/L | – | CC1(C)S[C@@H]2[C@H](NC(=O)[C@H](N)c3ccc(O)cc3)C(=O)N2[C@H]1C(=O)O [AMPC, amoxicillin] | 7.04 logarithm | 5.29^* logarithm | 9.32^*# logarithm | 9.38^*# logarithm |
